# Test results as given in patent US11000568B2, “Means and methods for treating copper-related diseases” (HELMHOLTZ ZENTRUM MÜNCHEN—DEUTSCHES FORSCHUNGSZENTRUM FÜR …, priority 2015, dated 2021).
# Entries after “also recorded” stand apart in the source; their conditions may differ. Numbered stars: 1 amine (or outer) side, 2 acyl side, 3 side chain; on linkers, the order of the positions; unused ones are H or OH. Bridge positions count the residues as written; N and C are the ends. Square brackets hold non-standard residues; d marks the D form. Peptide text beside a SMILES is read from it. * marks the point of attachment. X2 = O=C1OC(C2CCCN2[*:1])=NC1C(=S)NC(CO)C(=O)[*:2]; X1 = CC(C)CC(=O)C1=NC(C(=S)NCC(=O)*)C(=O)O1
# Legend:
# HepG2 cells = experiment: Cellular de-coppering of HepG2 cells (ICP-OES); format: cell-based
# Protocol: HepG2 cells were kept in MEM with 2% FCS. […] Therefore, Zn-MB, generated by preparing a 20 mM MB solution and adding an equimolar concentration of Zn solution under pH control, was used in cell culture experiments.
# To determine the cellular de-coppering efficiency of MB, cells were pretreated with 2% FCS containing medium or 15 μM copper-histidine for 24 h and subsequently subjected to a 24 h treatment with 500 μM MB. Thereafter, cells were washed two times and counted. Copper in 2.5×10^6 cells was determined by ICP-OES after wet ashing of samples with 65% nitric acid.
# (§1) Copper in liver homogenates, cell lysates and mitochondrial preparations were analyzed by ICP-OES (Ciros Vision, SPECTRO Analytical Instruments GmbH) after wet ashing of samples with 65% nitric acid (Zischka et al., log. cit.).
# LPP−/− rats [1] = experiment: Short-term in vivo treatment of LPP−/− rats; set-up: species or system rat
# Protocol: LPP rats were treated with MB either by daily i.p. injections for 3 or 5 consecutive days, or twice daily i.p. injections for 8 consecutive days at a dose of 150 mg/kg bw or 4 days via the drinking water with D-PA at a dose of 100 mg/kg bw/d or TETA at 480 mg/kg bw/d, respectively (Togashi et al., Hepatology 15, 82-87 (1992)). Based on a mean copper content of 250 μg/g w.w. in Atp7b−/− rat livers at the age of treatment start (Zischka et al., log. cit.), a LPP−/− rat liver of 8 g w.w. contains around 31.5 μmol copper. Single MB doses were chosen equimolar to this copper amount. […] Assuming 40 ml water intake per day for a rat weighing 250 g this translates to a dose of 480 mg/kg bw/d. With respect to the mean liver copper content in LPP−/− rats aged 85 days, the molar ratios of the chelators applied was MB 1:D-PA 4.3:TETA 17.4, respectively. For the intravenous MB application (150 mg/kg bw), catheters connected to a PinPort™ (Instech Laboratories, Inc., USA) were inserted in the femoral vein of the rat, fixed with non-absorbable sutures and subcutaneously tunneled and exteriorized through a skin incision made between the shoulders.
# Formalin-fixed, paraffin-embedded liver samples were cut into 4 μm-thick sections and either stained with hematoxylin and eosin for standard analyses or with Masson trichrome for analysis of fibrotic tissue. AST activity and bilirubin concentration in animal plasma or serum were measured with a Reflotron system (Roche).
# as §1
# The efficiency of a short-term MB treatment schedule was assessed in LPP−/− rats at the age of liver disease onset (85-90 days). Animals received MB (i.p.) either for 3 or 5 days or the clinically used copper chelators D-PA or TETA, which were orally administered for 4-days.
# [2] = tested on: WD patient-derived hepatocyte like (HLC) cells; experiment: De-coppering of WD patient-derived hepatocyte like cells (HLC); format: cell-based, human; details: Cu-histidin 15 μM 24 h, then MB 300 μM 24 h
# Protocol: Urinary epithelial cells were pelleted at 400×g for 10 min from freshly donated mid-stream urine (Zhou et al., J Am Soc Nephrol 22, 1221-1228 (2011)). Cells were cultured in urinary cell medium (UCM) consisting of Dulbecco's modified Eagle medium/Ham's F-12 culture medium (DMEM/F12, Lonza) supplemented with 10% fetal bovine serum (FBS, PAA), 0.1 mM non-essential amino acids (NEAA, Sigma), 0.1 mM β-mercaptoethanol, 1 mM GlutaMAX (Life Technologies), and SingleQuot Kit CC-4127 REGM (Lonza). Urinary epithelial cells were reprogrammed by nucleofection of episomal expression vectors pCXLE-hOCT3/4-shp53-F, pCXLE-hSK, and pCXLE-hUL (Addgene) using the Amaxa Basic Nucleofector Kit (Lonza, VPI-1005). iPS cells (iPSCs) were maintained on Matrigel-coated plates in mTeSR cell culture medium and dissociated with 1 U/ml dispase (Stem Cell Technologies) into small clusters and subcultured every 5 to 7 days. WD iPSCs were differentiated into hepatocyte-like cells (HLCs) by a modification of the method reported previously (Basma et al., Gastroenterology 136, 990-999 (2009)). […] iPSCs were plated in single cells onto 6-well plates precoated with Matrigel. […]
# HLCs were incubated at day 14 with Cu-histidin (15 μM) for 24 h in a 6 well plate. […] After 24 h incubation, washed cells were collected, counted and their copper content assessed.
# LPP−/− rats [3] = experiment: Repetitive MB treatment cycles in LPP−/− rats; format: in vivo, rat
# Description: Due to the efficiency of the short-term MB treatment, we did a first test aiming at replacing daily chelation therapy by a regimen consisting of repetitive treatment cycles interrupted by longer observation cycles (FIG. 14). Five LPP−/− rats as well as five age- and sex-matched LPP+/− controls were included. One pair of rats was sacrificed at experimental days 1, 8, 29, 36 and 85, respectively. […] The four remaining LPP−/− rats were subjected to the first treatment cycle consisting of three daily MB injections (i.p.) for five days. […] Upon the second treatment cycle copper loads decreased again, but now down to 25% of the starting values, resulting in an unprecedented low copper load in LPP−/− mitochondria (day 36, pair 4). […] At experimental day 85, liver and mitochondrial copper loads had risen back to values before beginning of the treatment (day 1), associated with an impaired mitochondrial function (65% ATP production capacity) in comparison to its LPP+/− control (pair 5).
# LPP−/− mitochondria = experiment: Chelator treatment of freshly isolated copper burdened LPP−/− mitochondria (copper extraction); set-up: species or system rat; details: 2 mM each, 30 min incubation
# [4] = MB i.p. 3 or 5 days, D-PA or TETA 4 days
# [5] = i.v. MB daily, five consecutive days
# [6] = day 36, after second treatment cycle
structure (smiles),measurement,setting,value
CSCCC(NC(=O)C1CSSCC(NC(=O)C(CO)NC(=O)CNC(=S)C2N=C(C(=O)CC(C)C)OC2=O)C(=O)NC(Cc2ccc(O)cc2)C(=O)N2CCCC2C2=NC(C(=O)O2)C(=S)NC(CO)C(=O)N1)C(=O)O (stereo not shown) [MB] (X1-SCY[X2]CM-OH; disulfide 2-5; configuration not given here),de-coppering of copper preloaded HepG2 cells,HepG2 cells; 24 h MB treated vs untreated control,highly efficiently de-coppered
same,reduction of copper in HepG2 cells,"HepG2 cells; basic copper load, 24 h 500 μM MB (Zn-MB used in cell culture)",50%
same,reduction of copper in HepG2 cells,"HepG2 cells; preloaded with 15 μM copper-histidine 24 h, then 24 h 500 μM MB",50%
same,histopathological liver damage,"LPP−/− rats [1]; MB 150 mg/kg bw i.p. daily 3 or 5 days, D-PA 100 mg/kg bw/d or TETA 480 mg/kg bw/d oral 4 days",strong reduction of histopathological liver damage markers
same,duration of normal serum AST on MB drug holiday,"LPP−/− rats [1]; MB five days, then drug holiday, zinc enriched food (1000 ppm)",at least two weeks
same,body weight,LPP−/− rats [1]; MB i.p. 3 or 5 days,regained body weight
same,mitochondrial copper,LPP−/− rats [1]; [4],significant reduction at the mitochondrial copper level
same,serum AST levels,LPP−/− rats [1]; [4],markedly decreased
same,whole liver copper,LPP−/− rats [1]; [4],progressive reduction in total liver copper; also recorded: progressive but minor reduction at the whole liver copper level
same,serum AST,"LPP−/− rats [1]; after 5 days of MB treatment, two onset and one diseased rat",< 200 U/L
same,severely impaired mitochondria (type 4) in isolates,"LPP−/− rats [1]; electron microscopy, short-term treatment",almost absent
same,body weight,"LPP−/− rats [1]; i.v. MB 150 mg/kg bw daily, five consecutive days",All animals regained bodyweight
same,AST or bilirubin levels,LPP−/− rats [1]; [5],levels returned to normal
same,copper content of whole liver and purified mitochondria,LPP−/− rats [1]; [5],profound reduction in copper content
same,mitochondrial copper load,"LPP−/− rats [1]; one week: 5× MB i.p., 5× MB i.v., 16× MB i.p.",drastically reduce the mitochondrial copper load
same,ATP production of isolated mitochondria,LPP−/− rats [1]; short term MB treatments,reverse this impairment
same,de-coppering of copper preloaded HLC,[2],Comparable copper depletions; also recorded: highly efficiently de-coppered
same,copper loads relative to starting values,LPP−/− rats [3]; [6],25%
same,decoppering efficiency,LPP−/− rats [3]; [6],75%
same,ATP production capacity vs LPP+/− control,LPP−/− rats [3]; experimental day 85,65%
same,reduction in copper load,"LPP−/− rats [3]; experimental day eight, after first cycle (three daily MB i.p. for five days)",40%
same,health status during observation period,LPP−/− rats [3]; further seven weeks after second cycle,stayed healthy
same,mitochondrial and liver copper load,LPP−/− rats [3]; recurrent treatment cycles,marked reduction in mitochondrial and liver copper load
same,time/age to disease onset vs untreated LPP−/− rats,LPP−/− rats [3]; recurrent treatment cycles,doubling of the age; also recorded: doubling of time before disease onset
same,copper associated with LPP−/− mitochondria,LPP−/− mitochondria,rapidly decreased copper
